Source: PubChem BioAssay (NCI)
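Exposure lasted 48 hours, with cells grown in 96-well plates and compounds tested at five concentrations. Abbreviation: GI50, concentration required for 50% inhibition of growth. TGI: total growth inhibition.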

How the values were obtained:
Assay in all cases: NCI-60 cell line screen, 48 h
[1] = test system: MDA-MB-231 breast
[2] = test system: HOP-62 NSCLC
[3] = test system: M14 melanoma
[4] = test system: OVCAR-5 ovarian
[5] = test system: SR leukemia
[6] = test system: KM12 colon
[7] = test system: HOP-92 NSCLC
[8] = test system: SNB-75 CNS
[9] = test system: UO-31 renal
[10] = test system: ACHN renal
[11] = test system: OVCAR-4 ovarian
[12] = test system: K-562 leukemia
[13] = test system: 786-0 renal
[14] = test system: U251 CNS
[15] = test system: MALME-3M melanoma
[16] = test system: RPMI-8226 leukemia
[17] = test system: SK-MEL-5 melanoma
[18] = test system: OVCAR-8 ovarian
[19] = test system: HCC-2998 colon
[20] = test system: HCT-116 colon
[21] = test system: HS 578T breast
[22] = test system: HCT-15 colon
[23] = test system: UACC-62 melanoma
[24] = test system: SK-OV-3 ovarian
[25] = test system: TK-10 renal
[26] = test system: CAKI-1 renal
[27] = test system: SF-539 CNS
[28] = test system: NCI-H226 lung
[29] = test system: SK-MEL-2 melanoma
[30] = test system: SF-268 CNS
[31] = test system: NCI-H23 lung
[32] = test system: HL-60(TB) leukemia
[33] = test system: PC-3 prostate
[34] = test system: CCRF-CEM leukemia
[35] = test system: MDA-MB-435
[36] = test system: LOX IMVI melanoma
[37] = test system: NCI-H522 lung
[38] = test system: A498 renal
[39] = test system: DU-145 prostate
[40] = test system: IGROV1 ovarian
[41] = test system: A549 NSCLC
[42] = test system: SNB-19 CNS
[43] = test system: NCI/ADR-RES ovarian
[44] = test system: T-47D breast
[45] = test system: MCF7 breast
[46] = test system: UACC-257 melanoma
[47] = test system: SF-295 CNS
[48] = test system: SW-620 colon
[49] = test system: SN12C renal
[50] = test system: COLO 205 colon
[51] = test system: NCI-H460 lung
[52] = test system: RXF 393 renal
[53] = test system: BT-549 breast
[54] = test system: OVCAR-3 ovarian
[55] = test system: HT29 colon
[56] = test system: MOLT-4 leukemia
[57] = test system: SK-MEL-28 melanoma

CO/N=C(\c1ccccc1)c1cnn(-c2ccccc2)c1N
GI50 [1]: > 25 µM | TGI [1]: > 25 µM | GI50 [2]: > 25 µM | TGI [2]: > 25 µM | GI50 [3]: > 25 µM | TGI [3]: > 25 µM | GI50 [4]: > 25 µM | TGI [4]: > 25 µM | GI50 [5]: > 25 µM | TGI [5]: > 25 µM | GI50 [6]: > 25 µM | TGI [6]: > 25 µM | GI50 [7]: > 12.4 µM | TGI [7]: > 25 µM | GI50 [8]: > 25 µM | TGI [8]: > 25 µM | GI50 [9]: > 25 µM | TGI [9]: > 25 µM | GI50 [10]: > 25 µM | TGI [10]: > 25 µM | GI50 [11]: > 25 µM | TGI [11]: > 25 µM | GI50 [12]: > 25 µM | TGI [12]: > 25 µM | GI50 [13]: > 25 µM | TGI [13]: > 25 µM | GI50 [14]: > 25 µM | TGI [14]: > 25 µM | GI50 [15]: > 25 µM | TGI [15]: > 25 µM | GI50 [16]: > 25 µM | TGI [16]: > 25 µM | GI50 [17]: > 25 µM | TGI [17]: > 25 µM | GI50 [18]: > 25 µM | TGI [18]: > 25 µM | GI50 [19]: > 25 µM | TGI [19]: > 25 µM | GI50 [20]: > 25 µM | TGI [20]: > 25 µM | GI50 [21]: > 25 µM | TGI [21]: > 25 µM | GI50 [22]: > 25 µM | TGI [22]: > 25 µM | GI50 [23]: > 25 µM | TGI [23]: > 25 µM | GI50 [24]: > 25 µM | TGI [24]: > 25 µM | GI50 [25]: > 25 µM | TGI [25]: > 25 µM | GI50 [26]: > 25 µM | TGI [26]: > 25 µM | GI50 [27]: > 25 µM | TGI [27]: > 25 µM | GI50 [28]: > 25 µM | TGI [28]: > 25 µM | GI50 [29]: > 25 µM | TGI [29]: > 25 µM | GI50 [30]: > 25 µM | TGI [30]: > 25 µM | GI50 [31]: > 25 µM | TGI [31]: > 25 µM | GI50 [32]: > 25 µM | TGI [32]: > 25 µM | GI50 [33]: > 25 µM | TGI [33]: > 25 µM | GI50 [34]: > 25 µM | TGI [34]: > 25 µM | GI50 [35]: > 25 µM | TGI [35]: > 25 µM | GI50 [36]: > 25 µM | TGI [36]: > 25 µM | GI50 [37]: > 25 µM | TGI [37]: > 25 µM | GI50 [38]: > 16.8 µM | TGI [38]: > 25 µM | GI50 [39]: > 25 µM | TGI [39]: > 25 µM | GI50 [40]: > 25 µM | TGI [40]: > 25 µM | GI50 [41]: > 25 µM | TGI [41]: > 25 µM | GI50 [42]: > 25 µM | TGI [42]: > 25 µM | GI50 [43]: > 25 µM | TGI [43]: > 25 µM | GI50 [44]: > 25 µM | TGI [44]: > 25 µM | GI50 [45]: > 25 µM | TGI [45]: > 25 µM | GI50 [46]: > 25 µM | TGI [46]: > 25 µM | GI50 [47]: > 25 µM | TGI [47]: > 25 µM | GI50 [48]: > 25 µM | TGI [48]: > 25 µM | GI50 [49]: > 25 µM | TGI [49]: > 25 µM | GI50 [50]: > 25 µM | TGI [50]: > 25 µM | GI50 [51]: > 25 µM | TGI [51]: > 25 µM | GI50 [52]: > 25 µM | TGI [52]: > 25 µM | GI50 [53]: > 25 µM | TGI [53]: > 25 µM | GI50 [54]: > 25 µM | TGI [54]: > 25 µM | GI50 [55]: > 25 µM | TGI [55]: > 25 µM | GI50 [56]: > 25 µM | TGI [56]: > 25 µM | GI50 [57]: > 25 µM | TGI [57]: > 25 µM
